For data set [1] the following is noted: cited from earlier work.
Data set [2] in a line: Antioxidant screening in the formulation. Particulars: alpha-tocopherol at 0.5% concentration in surfactant phase; ascorbic acid in aqueous phase. In kind it is physicochemical. An excerpt:
Alpha tocopherol and ascorbic acid were screened for their effectiveness for use within the formulation. Ascorbic acid was used in the aqueous phase whereas the alpha tocopherol was used in the surfactant phase in terms of order of addition.

The conditions of data set [3]: oral and parenteral administration in animals; cited from earlier work.

Molecules are shown by their SMILES.

`OC[C@H]1O[C@H](O[C@]2(CCl)O[C@H](CCl)[C@@H](O)[C@@H]2O)[C@H](O)[C@@H](O)[C@H]1Cl` [Sucralose]: the ADI limit in data set [1] (pediatric population) is 5 mg/kg/day.
With `Cc1c(C)c2c(c(C)c1O)CC[C@@](C)(CCC[C@H](C)CCC[C@H](C)CCCC(C)C)O2` [alpha-tocopherol], the “appearance of solutions containing the antioxidant” value in data set [2] is “hazy”.
The same measure, in the same setting: for `O=C1O[C@H]([C@@H](O)CO)C(O)=C1O` [ascorbic acid] the value was “clear colourless solutions”.
Take `COC(=O)c1ccc(O)cc1` [methylparaben, methyl parahydroxybenzoate]: the acute toxicity result in data set [3] is “practically non-toxic”.
On to `CCCOC(=O)c1ccc(O)cc1` [propyl paraben, propyl parahydroxybenzoate], for which the “permitted daily exposure (PDE)” value in data set [1] (adults and pediatric patients) is recorded as 2 mg/kg/day. For the same compound, the acute toxicity entry in data set [3] was “relatively non-toxic”.

(Values after patent publication US11426362B2, “Oral cannabinoid formulations” (GW Research Limited, priority 2017, dated 2022).)
